What is called IC50 is the midpoint of a concentration-inhibition curve. As a reminder, the CC50 is the concentration that lowers cell viability or growth by half. The low end stands for greater toxicity to the cells, the high end for lower toxicity to the cells.

This passage reports IC50 and CC50 results from paper PMC10900488, “Synthesis and Evaluation of (Bis)benzyltetrahydroisoquinoline Alkaloids as Antiparasitic Agents” (JACS Au, 2024).

Data set [1] has as its system L. infantum promastigotes. The data set can be described thus: Antipromastigote assay (L. infantum), MTT colorimetric. It counts as cell-based, Leishmania (L.) infantum. The settings on record: ± SD; MTT, 48 h; read-out: L. infantum IC50 promastigotes. Here is the method:
(§1) Table 1 depicts the antileishmanial (L. infantum) activity evaluation performed against both the amastigote form (evaluated microscopically using an ex vivo intracellular model of mice macrophages) and the promastigote one (using an MTT colorimetric method).[32],[33] The cytotoxicity was evaluated against NCTC cells using an MTT colorimetric method and the selectivity index was determined using the ratio between the CC50 values (NCTC cells) and the IC50 values (amastigotes).[32] […] With respect to the substituents on the C ring, larger, hydrophobic groups conferred greater bioactivity (e.g., 9b–d), whereas small, hydrophilic groups such as a hydroxyl group afford modest to poor bioactivity.
(§2) Leishmania (L.) infantum (MHOM/BR/1972/LD) amastigotes were obtained from golden hamsters (Mesocricetus auratus) spleens following 60-70 days of infection via differential centrifugation. The Stauber method was used to determine the number of parasites.12 […]
Biological activity assays
Antipromastigote Assay (L. infantum)
L. infantum promastigotes (1 × 10^6 cells/well) were added to a 96-well plates. Treatment of the cells with selected compounds (serially diluted 0.14 to 200 μM) was performed in M199 medium supplemented with 0.25% hemin and 10% fetal bovine serum for 48 h at 24 °C. The MTT colorimetric assay was used to determine the activity (IC50) of the compounds. Miltefosine was used as a standard drug and untreated promastigotes were used as a negative control. The half inhibitory concentration (IC50) was determined from a sigmoidal regression of the concentration-response curves generated in GraphPadPrism7. […]

In data set [2] the test system is L. infantum amastigotes. The data set can be described thus: Antiamastigote assay (L. infantum), ex vivo intracellular model of mice macrophages, microscopy. It counts as cell-based, Leishmania (L.) infantum. The settings on record: ± SD; intracellular, peritoneal macrophages, 96 h; read-out: L. infantum IC50 amastigotes. Here is the method: as §1, §2
(§3) Peritoneal macrophages were obtained via washing the peritoneal cavity of BALB/c mice with 10% foetal calf serum supplemented RPMI-1640 medium (pH 7.2). The macrophages were maintained in a humidified incubator at 37 °C and with 5% CO2.
(§4) Biological activity assays […]
Antiamastigote Assay (L. infantum)
Peritoneal macrophages (1 × 10^5/well) were added to a 16-well slide chambers (NUNC) and incubated with 5% CO2 at 37 °C. The cells were subsequently infected with L. infantum amastigotes (10:1 amastigotes/macrophage) for 24 h. Treatment of the cells with selected compounds (serially diluted 1.2 to 150 μM) was performed in a humidified incubator for 96 h at 37 °C and with 5% CO2. Untreated cells were used as a negative control and miltefosine was used as a standard drug. The treated cells were fixed on slides with methanol, stained with Giemsa and observed under a light microscope.13 The infection index was used in order to determine the half inhibitory concentration (IC50) (no. infected macrophages × no. amastigotes / total no. […]

Data set [3] relates to T. cruzi trypomastigotes. The data set can be described thus: Antitrypomastigote assay (T. cruzi), resazurin. The settings on record: ± SD; resazurin, 24 h; read-out: T. cruzi IC50 trypomastigotes. It counts as cell-based, Trypanosoma (T.) cruzi. Here is the method:
(§5) T. cruzi also assumes several cell morphologies during its lifecycle, which differ between the insect vector and mammalian host. In the latter environment, the parasite transitions between extracellular bloodstream trypomastigotes and intracellular amastigotes; both forms are clinically relevant, particularly during the acute stage of Chagas disease.[34] In this work, antitrypanosomal activity was tested against both the amastigote form (evaluated microscopically using an ex vivo intracellular model using mice macrophages) and the trypomastigote form (using the resazurin in vitro assay).[33],[35] […] In silico predictions of pharmacokinetic profiles were carried out using the SwissADME webtool (see the Supporting Information for details).[36] […]
(§6) […] Cultivation was performed in 2% fetal calf serum supplemented RPMI-1640 medium.
(§7) The trypomastigotes were maintained in a humidified incubator at 37 °C and with 5% CO2. […]
as §4
The half inhibitory concentration (IC50) was determined from a sigmoidal regression of the concentration-response curves generated in GraphPadPrism7. […]
Treatment of the cells with selected compounds (serially diluted 1.2 to 150 μM) was performed in a humidified incubator in RPMI 1640 medium for 24 h at 37 °C and with 5% CO2. Resazurin (0.011% in PBS) was added subsequently to verify parasite viability. Benznidazole was used as a standard drug. The optical density was determined at 570 nm using the FilterMax F5 (Molecular Devices). […]

Data set [4] has as its system T. cruzi amastigotes. The experiment in a line: Antiamastigote assay (T. cruzi), ex vivo intracellular model using mice macrophages, microscopy. In kind it is cell-based, Trypanosoma (T.) cruzi. The settings on record: ± SD, peritoneal macrophages, 48 h, read-out: T. cruzi IC50 amastigotes. The protocol: as §5, §6, §7, §3, §4
Peritoneal macrophages (1 × 10^5 cells/well) obtained from the peritoneal cavity of BALB/C mice were added to 16-well chambers (NUNC, Thermo Fischer Scientific). The cells were infected with trypomastigotes (10:1 parasites/macrophage) for 2 h. Then treatment of the infected macrophages with selected compounds (serially diluted 1.2 to 100 μM) was performed in a humidified incubator for 48 h at 37 °C and with 5% CO2. The treated cells were fixed on slides using methanol, stained with Giemsa and observed under a light microscope (EVOS M5000, Thermo, USA) with digital image equipment. The infection index was used in order to determine the half inhibitory concentration (IC50) (no. infected macrophages × no. amastigotes / total no.

Data set [5] concerns NCTC cells. The data set can be described thus: Mammalian toxicity, MTT colorimetric. In kind it is cell-based, murine. Here is the method: as §1, with “bioactivity. […]” for “bioactivity.”
Murine conjunctive fibroblasts NCTC clone 929 (ATCC) were maintained in 10% foetal calf serum supplemented RPMI-1640 medium (pH 7.2) at 37 °C in a humidified incubator with 5% CO2. […]
as §4
NCTC cells (6 × 10^4/well) were added to a 96-well plate. Treatments of the cells with selected compounds (serially diluted 1.5 to 200 μM) was performed in a humidified incubator for 96 h at 37 °C and with 5% CO2.
The MTT colorimetric method was used to determine the 50% cytotoxic concentration (CC50) and the selectivity index (CC50 against NCTC cells/IC50 against amastigotes).15 […]
[…] At 6 h and 24 h post-treatment, a 1 mL aliquot was taken for imaging. The cell cycle experiment was preformed twice independently.
Generation of mNG::RAD51 tagged cell line
The single-stranded DNA-binding protein RAD51, associated with DNA Repair, LmxM.28.0550 was tagged with endogenous fluorescent protein mNeonGreen (mNG) at the N-terminus. […]
Primers for constructs and sgRNA were designed using LeishGEdit (http://www.leishGEdit.net).
PCR was at 94 °C for 5 min, followed by 35 cycles at 94 °C (15 sec), 65 °C (15 sec), 72 °C (2 min) then finally 72 °C (1 min).
PCR was at 94 °C for 30 sec, followed by 30 cycles at 94 °C (30 sec), 60 °C (30 sec), 72 °C (30 sec) then finally 72 °C (2 min). […] Combined PCR products were precipitated for 20 min with 10 μL 3M sodium acetate and 300 μL EtOH, pelleted at 14000 min-1 30 min, washed once with 70% EtOH, re-pelleted and resuspended in […]
Promastigotes (1 × 10^7 cells) were combined with PCR products and transfected using the Amaxa Nucleofector II.17 Electroporation was performed using 2 mm cuvettes on the X-100 program, followed by immediate suspension in pre-warmed M199 medium. Successful transfectants were selected with 20 μg mL-1 Puromycin 15 h after transfection, taking 4 days to reach stable growth in culture. mNG::RAD51 nuclear foci studies mNG::RAD51 promastigotes (5 × 10^6 cells mL-1) in 7 mL of M199 medium were treated with 7 μL o f compound (S)-9a or (S)-9b dissolved in DMSO giving a final concentration of 50 μM. Phleomycin was used as a positive control at a final concentration of 25 μg mL-1. At T = 0, 15, 30, 60 min, and 2, 6, 24 h post-treatment a 0.8 mL aliquot was taken for imaging.

For data set [6], the system named is L. donovani promastigotes. On the set-up: method as in PMID 26625837, PMID 12203262, PMID 3253497, PMID 25629555, PMID 3075676. The settings on record: reported antiparasitic activity; cited from earlier work.
Data set [7] deals with T. cruzi epimastigotes. On the set-up: method as in PMID 26625837, PMID 12203262, PMID 3253497, PMID 25629555, PMID 3075676. The settings on record: reported antiparasitic activity; cited from earlier work.

For the molecule `COc1ccc(COc2ccc(C[C@@H]3c4cc(OC)c(OC)cc4CCN3C)cc2)cc1` [(R)-10c], the IC50 in data set [1] was 2.4 ± 0.9 µM; in data set [2], 9.3 ± 0.4 µM; in data set [3] it was 25.3 ± 2.1 µM; in data set [4], more than 100 µM. This molecule also gave a CC50 in data set [5] of 28.1 ± 5.5 µM.
Consider `COc1ccc(COc2ccc(C[C@H]3c4cc(OC)c(OC)cc4CCN3C)cc2)cc1` [(S)-10c], for which the IC50 is 4.8 ± 0.2 µM in data set [1], more than 150 µM in data set [2], 20.4 ± 11.4 µM in data set [3] and more than 100 µM in data set [4]. Moreover, the midpoint of cytotoxicity in data set [5], the CC50, lay at 5.8 ± 0.5 µM.
As to `COc1ccc2cc1Oc1ccc(cc1)C[C@H]1c3cc(OC)c(OC)c(c3CCN1C)Oc1c(O)c(OC)cc3c1[C@H](C2)NCC3` [compound 2, northalrugosidine], in data set [6], the IC50 is 0.28 µM.
As for `COc1ccc2cc1Oc1ccc(cc1)C[C@H]1c3c(cc(OC)c(O)c3Oc3cc4c(cc3OC)CCN[C@@H]4C2)CCN1C` [compound 3, daphnandrine], the IC50 in data set [7] was 43 µM.
